The source of these data is patent US4605649A, “Method of treatment of estrogen deficiency disease” (priority 1984, dated 1986).

Where two headings read alike, the source gives them in different places.

For series [1], the system named is catechol estrogen formation. To be noted: cited from earlier work.
The test system of series [2] is estrogen receptor. The note with it: relative to estradiol = 100; Heiman et al., J. Med. Chem., 23, 994 (1980); cited from earlier work.
The subject of series [3] is renal clear cell carcinoma. Briefly: In vivo carcinogenicity: renal clear-cell carcinoma in male Syrian hamsters. On the procedure:
(§1) Male Syrian hamsters, 3-4 weeks of age (Harlan/Sprague Dawley, Madison, Wis.), were given a 25 mg. s.c. implant consisting of 10% cholesterol and 90% estrogen. A second 25 mg. pellet of the same composition was implanted 106 days after the initial estrogen treatment. Estrogen treatment was carried out according to the procedure of Kirkman--National Cancer Institute Monograph, 2, 1-57 (1959). Control animals were left untreated. Two hundred twenty-four days after treatment with estrogens had begun, hamsters were weighed, killed, both testes were excised and their weights measured in grams. Data presented in Table 1 are the ranges of testes weights from four animals in each group. Weights are expressed as percentages of total body weights.
The carcinogenicity of the modified estrogens was measured in male Syrian hamsters in vivo. Estrogen, and estrogen alone, causes renal clear cell carcinoma in 100% of the male animal population when exposed to s.c. estrogen implants. This kidney tumor is estrogen-induced and estrogen-dependent for development and growth. Failure to resupply estrogen every three months or surgical removal of implants results in tumor regression within a few weeks. […] The spontaneous kidney tumor incidence in Syrian hamsters without estrogen treatment is very low. The above facts are fully discussed in Kirkman, Nat'l. Can. Inst. Monograph, 1, 1 (1959); McGregor et al., J. Nat'l. Can. Inst., 24, 1057 (1960) and Sirbasku et al., Endocrin., 98, 1260 (1976).
The protocol employed was that set out for determining estrogen activity in male hamsters according to Table 1 (in that the animals examined for tumors at 224 days were the source of the testes). In the carcinogenicity experiment, further groups of animals were examined at 279 and 345 days. The animals were decapitated, the kidneys were excised and inspected visually for the occurrence of renal celear-cell carcinoma. Sections were prepared of all kidneys and studied histologically. In the table, column 1 gives the name of the compound, column 2 the total number of animals, column 3, the number of dead or lost animals and columns 4, 5 and 6 results of histologic examination of animals at the specified time interval for renal clear-cell carcinoma.

Series [4] has as its system testes of male Syrian hamsters. Nature of the series: Testes weight of male hamsters after s.c. estrogen implant (estrogenicity). The note with it: for Range Of Testes Weight Of Male Hamsters: 25 mg s.c. pellet (90% estrogen), second pellet at 106 days, four animals per group. It counts as in vivo. On the procedure: In a second method, the weights of both testes of those male Syrian hamsters which were used in the in vivo carcinogenicity assay, were measured on the 224th day after s.c. implantation of 25 mg. pellets of estrogen. The weights were measured in grams (expressed as percent of total body weight).
as §1

For series [5], the system named is estrogen receptor. The note with it: cytosol of hypothalamus-preoptic area, pituitary, uterus; Pfeiffer et al. (1982); cited from earlier work.
A further series has as its system protein or peptides. The note with it: cited from earlier work.
The next series deals with estrogenic activity. To be noted: catechol metabolites; cited from earlier work.
For the next series, the system named is DNA. To be noted: cited from earlier work.
For series [6], the system named is tumors in experimental animals. The note with it: prolonged treatment; testes, endometrium, ovary, cervix, mammary and other tissues; cited from earlier work.
[7] abbreviates: 224 days after s.c. implantation of estrogen.
Setting [8] is: 279 days after s.c. implantation of estrogen.
The mark [9] stands for this setting: 345 days after s.c. implantation of estrogen.

Regarding `C[C@]12CC[C@@H]3c4cc(F)c(O)cc4CC[C@H]3[C@@H]1CC[C@@H]2O` [2-fluoro-β-estradiol, 2-fluoro-3,17β-estradiol], the catechol estrogen formation entry in series [1] is recorded as “reduced catechol estrogen formation”. In addition, the “estrogen receptor binding affinity, ratio of association constants (Ka compound/Ka estradiol)×100” value with estrogen receptor [2] is listed as 86. The results for the “No. of Animals with Tumors/No. of Animals Examined” value (from here on “No. of Animals”) in [3] (setting [7]), in series [3] (setting [8]) and in series [3] (setting [9]) were 0/4, 0/4 and 0/3, respectively. Further, in series [3] (in words, compared with estradiol or 4-fluoro-β-estradiol at equal estrogen dosages), the “potential for induced renal clear cell carcinomas” value is “greatly decreased potential”. Also, the “carcinogenicity (conclusion)” value in [3] (in words, particular animal model) is recorded as “non-carcinogenic”. Also, the “Range Of Testes Weight Of Male Hamsters” value in series [4] (224 days) is listed as 0.18-0.25 % Of Total Body Weight. In series [4] (in words, hamster model), the “estrogenicity (conclusion)” value is “highly estrogenic”. Also, the estrogen receptor affinity result in the series with estrogen receptor [5] is recorded as “high receptor affinity”.
Regarding `C[C@]12CC[C@@H]3c4cc(O)c(O)cc4CC[C@H]3[C@@H]1CC[C@@H]2O` [2-hydroxyestradiol], the “covalent binding to protein or peptides” value in the series on protein or peptides (in vitro) is given as “bind covalently”. In addition, the estrogenic activity entry in the series with estrogenic activity is recorded as “almost devoid of estrogenic activity”. The “covalent binding to DNA” value with DNA (in vitro) is “bind covalently”.
Consider `C[C@]12CC[C@@H]3c4cc(O)c(O)cc4CC[C@H]3[C@@H]1CCC2=O` [2-hydroxyestrone], for which, in the series on protein or peptides, the “covalent binding to protein or peptides” value is recorded as “bind covalently”. Besides, the estrogenic activity entry in the series on estrogenic activity was “almost devoid of estrogenic activity”. Also, the “covalent binding to DNA” value with DNA was “bind covalently”.
With `C[C@]12CC[C@@H]3c4ccc(O)c(F)c4CC[C@H]3[C@@H]1CC[C@@H]2O` [4-fluoro-β-estradiol], the catechol estrogen formation result in series [1] (Krey et al. (1983)) is given as “reduced catechol estrogen formation”. Also, the “estrogen receptor binding affinity, ratio of association constants (Ka compound/Ka estradiol)×100” value in the series on estrogen receptor [2] is on record as 128. Moreover, the “animals judged histologically to be preneoplastic” value in series [3] (224 days) is 2 of 4. Besides, the “No. of Animals” value is 1/4 in series [3] (setting [7]), 3/6 in series [3] (setting [8]) and 0/3 in [3] (setting [9]). In addition, in [4] (224 days), the “Range Of Testes Weight Of Male Hamsters” value was 0.18-0.28 % Of Total Body Weight. Also, the estrogen receptor affinity entry in the series with estrogen receptor [5] is “high receptor affinity”.
Take `C[C@]12CC[C@@H]3c4ccc(O)c(O)c4CC[C@H]3[C@@H]1CC[C@@H]2O` [4-hydroxyestradiol]: in the series on protein or peptides (in vitro), the “covalent binding to protein or peptides” value is on record as “bind covalently”. Besides, in the series with estrogenic activity, the estrogenic activity entry is “almost devoid of estrogenic activity”. Moreover, the “covalent binding to DNA” value with DNA (in vitro) is “bind covalently”.
Regarding `C[C@]12CC[C@@H]3c4ccc(O)c(O)c4CC[C@H]3[C@@H]1CCC2=O` [4-hydroxyestrone], the “covalent binding to protein or peptides” value in the series with protein or peptides is “bind covalently”. Moreover, the estrogenic activity entry in the series on estrogenic activity is “almost devoid of estrogenic activity”. Besides, in the series on DNA, the “covalent binding to DNA” value is reported as “bind covalently”.
`CC/C(=C(/CC)c1ccc(O)cc1)c1ccc(O)cc1` [DES, diethylstilbestrol]: in series [6], the tumor induction result is listed as “increase the number of tumors”.
With `C[C@]12CC[C@@H]3c4ccc(O)cc4CC[C@H]3[C@@H]1CC[C@@H]2O` [estradiol], the tumor induction entry in [6] is recorded as “induce tumors”. Moreover, the “No. of Animals” value in [3] (setting [7]) was 4/4; in [3] (setting [8]), 5/5; in series [3] (setting [9]), 0/4. Also, in series [4] (224 days), the “Range Of Testes Weight Of Male Hamsters” value was 0.12-0.26 % Of Total Body Weight. Besides, the “testes weight relative to untreated hamsters” value in [4] (224 days, shrinking to % of the weights of testes in untreated hamsters) is listed as “approximately 10%”.
Consider `C[C@]12CC[C@@H]3c4ccc(O)cc4CC[C@H]3[C@@H]1C[C@@H](O)[C@@H]2O` [estriol], for which the tumor induction result in series [6] was “induce tumors”.
For the compound `C[C@]12CC[C@@H]3c4ccc(O)cc4CC[C@H]3[C@@H]1CCC2=O` [estrone], in series [6], the tumor induction entry is listed as “induce tumors”.
